Tests used:
IRAK3 [1] = biological target: T1, IRAK3 (Homo sapiens, UniProt Q9Y616); assay: IRAK3 Biochemical Binding Assay (LanthaScreen Eu Kinase Binding); conditions: TR-FRET tracer displacement, 1 hour at room temperature
T1 construct: IRAK Endogenous HTRF Degradation Assay; endogenous in cells
T1 sequence (Q9Y616 1-596): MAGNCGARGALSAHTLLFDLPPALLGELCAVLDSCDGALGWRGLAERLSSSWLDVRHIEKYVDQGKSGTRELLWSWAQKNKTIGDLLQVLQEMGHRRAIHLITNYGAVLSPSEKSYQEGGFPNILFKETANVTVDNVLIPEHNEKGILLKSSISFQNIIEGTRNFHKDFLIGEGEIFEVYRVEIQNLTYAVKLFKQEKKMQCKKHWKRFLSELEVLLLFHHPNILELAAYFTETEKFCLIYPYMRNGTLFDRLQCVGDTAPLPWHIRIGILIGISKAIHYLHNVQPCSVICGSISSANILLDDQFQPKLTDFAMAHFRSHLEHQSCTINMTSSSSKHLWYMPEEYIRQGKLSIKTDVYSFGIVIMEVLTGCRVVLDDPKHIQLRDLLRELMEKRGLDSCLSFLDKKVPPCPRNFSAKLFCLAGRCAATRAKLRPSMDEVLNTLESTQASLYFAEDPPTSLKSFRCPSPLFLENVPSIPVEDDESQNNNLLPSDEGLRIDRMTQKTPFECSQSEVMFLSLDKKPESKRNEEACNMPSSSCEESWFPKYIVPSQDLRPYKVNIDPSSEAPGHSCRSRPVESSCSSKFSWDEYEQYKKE
Method: The LanthaScreen® Eu Kinase Binding assay was performed as described by the vendor (ThermoFisher Scientific Waltham, MA). Briefly, 100× solutions of compound were prepared in DMSO via serial dilution of the 10 mM stock solution in a 384-well reagent plate using 3-fold intervals to achieve final concentrations. 1 μL of the compound dilution series were added to the corresponding wells of a 384-well reagent plate containing 32.3 μL of 1× buffer (50 mM HEPES pH 7.4, […], 1 mM EGTA, 0.01% Brij-35). 5 μL of the buffer diluted compounds were transferred to the corresponding wells of a 384-well assay plate. 5 μL of 3× tracer was transferred to each well of the assay plate for a final tracer concentration of 10 nM. Finally, 5 μL of the 3× Eu-Anti-GST and IRAK3 mix was transferred to each well for a final concentration of 2 nM and 10 nM respectively. Reactions were allowed to incubate for 1 hour at room temperature. TR-FRET signal of the interaction (λex340/λem 665/λem 615) was read at room temperature with a delay time of 100 μs and an integration time of 200 μs using an Envision plate reader. Background corrected emission signal ratios at each compound concentration were used to calculate percentage of inhibition (% Inhibition). Plots of % Inhibition versus inhibitor concentrations were fit according to a dose-response equation (Eq. 1) to generate IC50 and Hill slope values using Dotmatics software (Dotmatics, Bishops Stortford, Hertfordshire, England).
(§1) Using these assays, IC50, Dmax, EC50, and DC50 values of the following compounds were determined. Dmax is defined as the maximum percent degradation achieved and DC50 is the concentration at which 50% degradation is achieved.

IRAK3 [2] = biological target: T1, IRAK3; assay: IRAK Endogenous HTRF Degradation Assay; assay type: cell-based; conditions: endogenous IRAK3, overnight incubation; for Dmax: % Dmax=100−Ymin; for DC50: concentration at which 50% degradation is achieved
Method: Cells (˜50 k) were plated in Cisbio 96-well low volume white plates (Cisbio: cat #66PL96005). Compounds were dissolved in DMSO and a 3-fold serial dilution was performed using a TECAN D300E. Cells were incubated with the compound overnight. Total-IRAK3 HTRF kit from Cisbio was used for degradation analysis (Cisbio: 63ADK101PEH). Cryptate and D2 antibodies were diluted in Detection buffer as per manufacturers recommendation. Then 2 μL of each solution was added to 16 μL lysate. Buffer control (lysis buffer detection buffer), Cryptate control (lysis buffer+cryptate antibody+detection buffer), and Negative control (lysis buffer+cryptate antibody+D2 antibody) were made as per manufacturers recommendation. Post incubation with antibodies the HTRF signal was measured using a Perkin Elmer Envision reader and the HTRF signal was calculated using formula: (Emission at 665 nm/Emission at 615 nm)*10,000. All HTRF values were normalized to the average value of DMSO. The average value of the DMSO control wells were set to equal 100% of the relative IRAK3 protein levels. Normalized luminescence values were plotted on a graph as a function of compound concentration. Compound concentration was plotted on the x-axis and the corresponding normalized IRAK3 protein levels on the y-axis. The EC50 value (the half-maximum effective concentration) of a compound for the degradation of the IRAK3 was calculated using a four-parameter logistic model (sigmoidal dose−response model)(FIT=(A+{(B−A)/1+[(C/x)D]})) where C is the inflection point (EC50), D is the […], and A and B are the low and high limits of the fit, respectively). The Ymin was calculated by determining the lowest percentage of target protein remaining following compound treatment. Dmax was calculated from Ymin (% Dmax=100−Ymin).
as §1

| Structure (SMILES) | IC50 (IRAK3 [1]) [nM] | Dmax (IRAK3 [2]) [%] | DC50 (IRAK3 [2]) [nM] |
| --- | --- | --- | --- |
| Cc1cccc(-c2cnc(Nc3ccc(N4CCN(C(=O)COc5cccc6c5C(=O)N(C5CCC(=O)NC5=O)C6=O)CC4)cc3)c3nccn23)c1 (stereo not drawn) [Compound 1, 2-(2,6-Dioxopiperidin-3-yl)-4-(2-oxo-2-(4-(4-((5-(m-tolyl)imidazo[1,2-a]pyrazin-8-yl)amino)phenyl)piperazin-1-yl)ethoxy)isoindoline-1,3-dione] | 278 | 7 | > 10000 |
| Cc1cccc(-c2cnc(Nc3ccc(N4CCN(C(=O)CCCNC(=O)COc5cccc6c5C(=O)N(C5CCC(=O)NC5=O)C6=O)CC4)cc3)c3nccn23)c1 (stereo not drawn) [Compound 2, 2-((2-(2,6-Dioxopiperidin-3-yl)-1,3-dioxoisoindolin-4-yl)oxy)-N-(4-oxo-4-(4-(4-((5-(m-tolyl)imidazo[1,2-a]pyrazin-8-yl)amino)phenyl)piperazin-1-yl)butyl)acetamide] | 30 | 13 | > 10000 |
| Cc1cccc(-c2cnc(Nc3ccc(N4CCN(C(=O)CCOCCNC(=O)COc5cccc6c5C(=O)N(C5CCC(=O)NC5=O)C6=O)CC4)cc3)c3nccn23)c1 (stereo not drawn) [Compound 3, 2-((2-(2,6-Dioxopiperidin-3-yl)-1,3-dioxoisoindolin-4-yl)oxy)-N-(2-(3-oxo-3-(4-(4-((5-(m-tolyl)imidazo[1,2-a]pyrazin-8-yl)amino)phenyl)piperazin-1-yl)propoxy)ethyl)acetamide] | 84 | 3 | > 10000 |
| Cc1cccc(-c2cnc(Nc3ccc(N4CCN(C(=O)COc5ccc6c(c5)C(=O)N(C5CCC(=O)NC5=O)C6=O)CC4)cc3)c3nccn23)c1 (stereo not drawn) [Compound 4, 2-(2,6-Dioxopiperidin-3-yl)-5-(2-oxo-2-(4-(4-((5-(m-tolyl)imidazo[1,2-a]pyrazin-8-yl)amino)phenyl)piperazin-1-yl)ethoxy)isoindoline-1,3-dione] | 128 | 4 | > 10000 |
| Cc1cccc(-c2cnc(Nc3ccc(N4CCN(C(=O)CCCNC(=O)COc5ccc6c(c5)C(=O)N(C5CCC(=O)NC5=O)C6=O)CC4)cc3)c3nccn23)c1 (stereo not drawn) [Compound 5, 2-((2-(2,6-Dioxopiperidin-3-yl)-1,3-dioxoisoindolin-5-yl)oxy)-N-(4-oxo-4-(4-(4-((5-(m-tolyl)imidazo[1,2-a]pyrazin-8-yl)amino)phenyl)piperazin-1-yl)butyl)acetamide] | 71 | 18 | > 10000 |
| Cc1cccc(-c2cnc(Nc3ccc(N4CCN(C(=O)CCOCCNC(=O)COc5ccc6c(c5)C(=O)N(C5CCC(=O)NC5=O)C6=O)CC4)cc3)c3nccn23)c1 (stereo not drawn) [Compound 6, 2-((2-(2,6-Dioxopiperidin-3-yl)-1,3-dioxoisoindolin-5-yl)oxy)-N-(2-(3-oxo-3-(4-(4-((5-(m-tolyl)imidazo[1,2-a]pyrazin-8-yl)amino)phenyl)piperazin-1-yl)propoxy)ethyl)acetamide] | 83 | 13 | > 10000 |
| Cc1cccc(-c2cnc(Nc3ccc(N4CCN(CCNC(=O)COc5ccc6c(c5)C(=O)N(C5CCC(=O)NC5=O)C6=O)CC4)cc3)c3nccn23)c1 (stereo not drawn) [Compound 7, 2-((2-(2,6-Dioxopiperidin-3-yl)-1,3-dioxoisoindolin-5-yl)oxy)-N-(2-(4-(4-((5-(m-tolyl)imidazo[1,2-a]pyrazin-8-yl)amino)phenyl)piperazin-1-yl)ethyl)acetamide] | 33 | 27 | > 10000 |
| Cc1cccc(-c2cnc(Nc3cnn(C4CCN(CCNC(=O)COc5ccc6c(c5)C(=O)N(C5CCC(=O)NC5=O)C6=O)CC4)c3)c3nccn23)c1 (stereo not drawn) [Compound 8, 2-((2-(2,6-Dioxopiperidin-3-yl)-1,3-dioxoisoindolin-5-yl)oxy)-N-(2-(4-(4-((5-(m-tolyl)imidazo[1,2-a]pyrazin-8-yl)amino)-1H-pyrazol-1-yl)piperidin-1-yl)ethyl)acetamide] | < 0.5 | 73 | 20 |
| Cc1cccc(-c2cnc(Nc3cccc(C4CCN(CCNC(=O)COc5ccc6c(c5)C(=O)N(C5CCC(=O)NC5=O)C6=O)CC4)c3)c3nccn23)c1 (stereo not drawn) [Compound 9, 2-((2-(2,6-Dioxopiperidin-3-yl)-1,3-dioxoisoindolin-5-yl)oxy)-N-(2-(4-(3-((5-(m-tolyl)imidazo[1,2-a]pyrazin-8-yl)amino)phenyl)piperidin-1-yl)ethyl)acetamide] | 214 | 33 | > 10000 |
| Cc1cccc(-c2cnc(Nc3ccc(C4CCN(CCNC(=O)COc5ccc6c(c5)C(=O)N(C5CCC(=O)NC5=O)C6=O)CC4)cc3)c3nccn23)c1 (stereo not drawn) [Compound 10, 2-((2-(2,6-Dioxopiperidin-3-yl)-1,3-dioxoisoindolin-5-yl)oxy)-N-(2-(4-(4-((5-(m-tolyl)imidazo[1,2-a]pyrazin-8-yl)amino)phenyl)piperidin-1-yl)ethyl)acetamide] | 236 | 30 | > 10000 |
| Cc1cccc(-c2cnc(Nc3cccc(N4CCN(CCNC(=O)COc5ccc6c(c5)C(=O)N(C5CCC(=O)NC5=O)C6=O)CC4)c3)c3nccn23)c1 (stereo not drawn) [Compound 11, 2-((2-(2,6-Dioxopiperidin-3-yl)-1,3-dioxoisoindolin-5-yl)oxy)-N-(2-(4-(3-((5-(m-tolyl)imidazo[1,2-a]pyrazin-8-yl)amino)phenyl)piperazin-1-yl)ethyl)acetamide] | 5340 | 21 | > 10000 |
| Cc1cccc(-c2cnc(Nc3cnn(C4CCN(C5CCC6(CC5)CCN(C(=O)c5ccc7c(c5)CN(C5CCC(=O)NC5=O)C7=O)CC6)CC4)c3)c3nccn23)c1 (stereo not drawn) [Compound 12, 3-(1-Oxo-5-(9-(4-(4-((5-(m-tolyl)imidazo[1,2-a]pyrazin-8-yl)amino)-1H-pyrazol-1-yl)piperidin-1-yl)-3-azaspiro[5.5]undecane-3-carbonyl)isoindolin-2-yl)piperidine-2,6-dione] | 2 | 81 | 10 |

Reference: US20260028343A1, “Substituted Imidazopyrazine Compounds as Ligand Directed Degraders of IRAK3” (Celgene Corporation, priority 2022, published 2026)
